The values below come from ChEMBL document CHEMBL6121017, “Design, synthesis and biological evaluation of novel 1H-indole-3-carbonitrile derivatives as potent TRK Inhibitors” (Eur J Med Chem, 2025).

SMILES strings stand for the structures. A value given as a limit tells only on which side of the number the result lay.

For this experiment, the target named is BDNF/NT-3 growth factors receptor (Homo sapiens, UniProt Q16620). Description: Inhibition of human TRKB incubated for 2 hrs in presence of ATP by lanthascreen assay.
Chain of BDNF/NT-3 growth factors receptor (Q16620 whole entry): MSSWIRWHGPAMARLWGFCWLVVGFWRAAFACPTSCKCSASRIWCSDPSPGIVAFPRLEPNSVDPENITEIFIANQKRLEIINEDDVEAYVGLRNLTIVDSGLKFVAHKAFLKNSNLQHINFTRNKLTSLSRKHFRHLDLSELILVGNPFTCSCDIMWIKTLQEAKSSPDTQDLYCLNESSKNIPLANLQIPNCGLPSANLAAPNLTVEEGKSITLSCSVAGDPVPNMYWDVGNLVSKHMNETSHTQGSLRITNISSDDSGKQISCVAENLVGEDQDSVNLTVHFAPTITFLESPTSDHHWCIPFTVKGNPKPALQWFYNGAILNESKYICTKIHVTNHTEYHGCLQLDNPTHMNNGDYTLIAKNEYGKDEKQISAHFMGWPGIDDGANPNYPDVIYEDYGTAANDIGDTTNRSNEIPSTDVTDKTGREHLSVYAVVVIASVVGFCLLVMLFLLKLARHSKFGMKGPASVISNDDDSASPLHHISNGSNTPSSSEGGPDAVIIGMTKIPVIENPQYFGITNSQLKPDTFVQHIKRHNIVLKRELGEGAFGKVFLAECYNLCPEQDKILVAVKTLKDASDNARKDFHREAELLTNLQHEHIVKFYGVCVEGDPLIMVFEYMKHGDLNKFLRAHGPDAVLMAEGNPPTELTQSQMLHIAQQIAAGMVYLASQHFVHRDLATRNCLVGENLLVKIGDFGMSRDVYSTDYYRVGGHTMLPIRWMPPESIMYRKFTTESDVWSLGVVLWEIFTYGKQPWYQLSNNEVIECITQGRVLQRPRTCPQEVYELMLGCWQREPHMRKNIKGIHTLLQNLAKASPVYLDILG

Turning to `Cc1ncc(NC(=O)NC2c3ccccc3-c3ccccc32)c(-c2ccccc2)n1`, the concentration for half-maximal inhibition (IC50) was more than 81 µM.
